# Activity calls are given as the source filed them. The rule behind the calls is not given here.
# Tests used:
# Platelet [1] = test: Inhibition of platelet aggregation in human platelet rich plasma at 20 uM preincubated for 5 mins followed by aggregation inducer addition and measured after 5 mins by light transmission aggregometry relative to control; format: functional; conditions: 10 min
# [2] = Metabolic stability in human liver microsomes assessed as half life at 1 uM preincubated for 1 hr followed by NADPH addition and measured upto 60 mins by LC-MS/MS analysis; format: ADME, Microsome; conditions: time < 120 min
# [3] = target: T1, Proteinase-activated receptor 4 (Homo sapiens) (UniProt Q96RI0); test: Antagonist activity at PAR4 in human filtered plasma assessed as inhibition of PAR4-activated peptide AYPGPK-NH2 induced platelet aggregation at 100 nM preincubated for 5 mins followed by aggregation inducer addition and measured after 5 mins by light transmission aggregometry relative to control; format: functional, cell-free; conditions: filed as antagonist, time 10.0 min
# T1 sequence (whole entry): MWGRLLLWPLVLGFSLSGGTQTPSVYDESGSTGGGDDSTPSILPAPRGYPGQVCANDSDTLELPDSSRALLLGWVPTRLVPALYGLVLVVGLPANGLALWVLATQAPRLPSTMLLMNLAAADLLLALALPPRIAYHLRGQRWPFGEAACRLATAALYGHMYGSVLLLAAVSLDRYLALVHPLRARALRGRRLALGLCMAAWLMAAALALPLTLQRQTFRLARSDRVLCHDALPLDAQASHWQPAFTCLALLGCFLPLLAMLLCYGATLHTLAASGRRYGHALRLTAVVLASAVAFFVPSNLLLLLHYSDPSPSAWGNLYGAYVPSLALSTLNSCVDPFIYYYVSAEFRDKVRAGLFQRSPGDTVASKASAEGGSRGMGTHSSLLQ
# Platelet [4] = test: Inhibition of platelet aggregation in human platelet rich plasma preincubated for 5 mins followed by aggregation inducer addition and measured after 5 mins by light transmission aggregometry; format: functional, cell-based
# [5] = Oral bioavailability in Sprague-Dawley rat at 50 mg/kg; format: ADME, organism-based; conditions: in vivo
# [6] = Toxicity in C57BL/6J mouse assessed as prolongation of bleeding time at 3 to 12 mg/kg, po administered via oral gavage and measured after 2 hrs; format: organism-based; conditions: in vivo, dose 3-12 mg/kg
half-life at 1 µM [2],Structure (SMILES),inhibition at 20 µM (Platelet [1]),also measured
–,COc1nn2cc(-c3cc4cc5c(cc4o3)OCCO5)nc2s1,88.4%,–
16.1 min,COc1nn2cc(-c3cc4c(OCC(=O)N5CCC(F)(F)CC5)cc5c(c4o3)OCCO5)nc2s1,75.4%,–
–,FC(F)(F)c1nn2cc(-c3cc4ccc5c(c4o3)OCCO5)nc2s1,3.89%,–
–,COc1nn2cc(-c3cc4c(-c5ccc(C)cc5)cc5c(c4o3)OCCO5)nc2s1,-0.13%,–
–,COc1nn2cc(-c3cc4ccc5c(c4o3)C=CC(C)(C)O5)nc2s1,2.58%,–
–,CCOC(=O)N[C@@H]1CC[C@@H]2[C@@H](C1)C[C@H]1C(=O)O[C@H](C)[C@H]1[C@H]2/C=C/c1ccc(-c2cccc(F)c2)cn1,–,Activity [3]: Active
–,COc1nn2cc(-c3cc4ccc5c(c4o3)CCCO5)nc2s1,1.14%,–
–,COc1nn2cc(-c3cc4c(C5CC5)cc5c(c4o3)OCCO5)nc2s1,75.6%,IC50 (Platelet [4]): 0.0187 µM
34.3 min,COc1nn2cc(-c3cc4c(F)cc5c(c4o3)OCCO5)nc2s1,74.8%,IC50 (Platelet [4]): 0.0091 µM; bioavailability [5]: 4.9%
18.4 min,COc1nn2cc(-c3cc4ccc5c(c4o3)OCCCO5)nc2s1,76.8%,IC50 (Platelet [4]): 0.0171 µM
–,COc1nn2cc(-c3cc4c(OCc5csc(N6CCSCC6)n5)cc5c(c4o3)OCCO5)nc2s1,82.1%,IC50 (Platelet [4]): 0.0092 µM
–,COc1nn2cc(-c3cc4c(OCCN5CCS(=O)(=O)CC5)cc5c(c4o3)OCCO5)nc2s1,-4.63%,–
14.8 min,COc1nn2cc(-c3cc4c(OCc5nc(N6CCOCC6)sc5C)cc5c(c4o3)OCCO5)nc2s1,85.2%,IC50 (Platelet [4]): 0.0092 µM
–,COc1nn2cc(-c3cc4ccc5ccccc5c4o3)nc2s1,8.27%,–
33 min,COc1nn2cc(-c3cc4c(OCCN5CCOCC5)cc5c(c4o3)OCCO5)nc2s1,78.9%,–
10.6 min,Cc1ccc2nc(-c3cc4ccc5c(c4o3)OCCO5)cn2n1,85%,IC50 (Platelet [4]): 0.0108 µM
–,COc1nn2cc(-c3cc4c(N5CCOCC5)cc5c(c4o3)OCCO5)nc2s1,37.1%,–
–,COc1nn2cc(-c3cc4c(OCc5csc(-c6ccc(C(F)(F)F)cc6)n5)cc5c(c4o3)OCCO5)nc2s1,6.57%,–

half-life at 1 µM [2],Structure (SMILES),inhibition at 20 µM (Platelet [1]),also measured
–,COc1nn2cc(-c3cc4c(OCC(=O)N5CCN(C(C)=O)CC5)cc5c(c4o3)OCCO5)nc2s1,15.1%,–
–,COc1nn2cc(-c3cc4ccc5c(c4o3)CCCC5)nc2s1,8.02%,–
–,COc1nn2cc(-c3cc4ccc5c(c4o3)OCCCCO5)nc2s1,44.8%,–
–,CSc1nn2cc(-c3cc4ccc5c(c4o3)OCCOCCO5)nc2s1,-1.3%,–
–,c1cnn2cc(-c3cc4ccc5c(c4o3)OCCO5)nc2n1,2.08%,–
–,COCCCc1cc2c(c3oc(-c4cn5nc(OC)sc5n4)cc13)OCCO2,4.17%,–
15 min,[2H]c1cc2c(c3oc(-c4cn5nc(OC)sc5n4)cc13)OCCO2,79.9%,IC50 (Platelet [4]): 0.0028 µM
55.8 min,COc1nn2cc(-c3cc4c(OCc5csc(-c6ccc(C(=O)N(C)C)cc6)n5)cc5c(c4o3)OCCO5)nc2s1,80.8%,–
–,COc1nn2cc(-c3cc4c(Cl)cc5c(c4o3)OCCO5)nc2s1,43.2%,–
–,COc1nn2cc(-c3cc4c(OCc5ccccc5)cc5c(c4o3)OCCO5)nc2s1,7.4%,–
–,COc1ccc2nc(-c3cc4ccc5c(c4o3)OCCO5)cn2n1,0%,–
59.7 min,COc1nn2cc(-c3cc4c(Br)cc5c(c4o3)OCCO5)nc2s1,83.1%,IC50 (Platelet [4]): 0.0184 µM
–,COc1nn2cc(-c3cc4ccc5c(c4o3)CCO5)nc2s1,83.7%,IC50 (Platelet [4]): 0.0178 µM
11.1 min,CSc1nn2cc(-c3cc4ccccc4o3)nc2s1,81%,–
–,COC(=O)[C@H](c1ccccc1Cl)N1CCc2sccc2C1 [CLOPIDOGREL],–,Activity [6]: Toxic
–,COc1nn2cc(-c3cc4c(C(F)(F)F)cc5c(c4o3)OCCO5)nc2s1,5.75%,–
16.2 min,COc1nn2cc(-c3cc4ccc5c(c4o3)OCO5)nc2s1,77.5%,IC50 (Platelet [4]): 0.0188 µM
–,COc1nn2cc(-c3cc4c5c(ccc4o3)OCCO5)nc2s1,18.4%,–
